Test [1] relates to LM2-4luc lung metastases in SCID mice. Put plainly: experimental LM2-4luc lung metastasis model (IV). It is filed as in vivo, human LM2-4luc cells in CB-17 SCID mice. As to conditions: for lung metastases by in vivo bioluminescent imaging: 24DPI, SU 60 mg/kg/day pretreatment, one-way ANOVA, Fig2B–D. An excerpt: (C and G) Photographs of typical metastases in the lungs and caudal lymphatics, respectively. […] Geometric means ± 95%CI are depicted in (D and H); P values were derived by one-way ANOVA (D) and Kruskal–Wallis test (H). […] TEXT PRINTED IN THE PICTURE: (A) Vasculotide (VT): Hazard ratio = 0.13 (95% CI, 0.03 to 0.63) | (A) SU+VT: Hazard ratio = 0.19 (95% CI, 0.04 to 0.81) DOUBTS OF THE COPYIST ABOUT THIS PICTURE: Vasculotide (VT), Hazard ratio: small print; 0.13 could be 0.15 or 0.18, and the CI limits 0.03 and 0.63 are uncertain in the digits 3/5/6/8 / SU+VT, Hazard ratio: small print; 0.19 could be 0.18 or 0.16, and the CI limits 0.04 and 0.81 are uncertain in the digits / Panel A: each hazard ratio is printed under a pair of legend entries (Vehicle / Vasculotide (VT), and Sunitinib (SU) / SU+VT). Assigning it to the VT-treated arm of each pair is my assumption.
(§1) In vivo experiments were performed in strict accordance with protocols approved by the Sunnybrook Research Institute Animal Care Committee, accredited by the Canadian Council of Animal Care. All surgical, imaging, and euthanasia procedures were performed under inhaled isoflurane anesthesia. Experimental metastasis models involved injections of 10^6 tumor cells, suspended in 200 μl serum-free DMEM, into the mouse tail vein. LM2-4^luc implantations were performed on 6 to 8-week-old female CB-17 SCID mice (Charles River Canada). HT29^luc implantations were performed on 19- to 20-week-old male and 11- to 12-week-old female YFP-SCID mice (bred in-house). SN12^luc implantations were performed on 9-week-old male YFP-SCID mice. Spontaneous metastasis models involved orthotopic implantations of 2 × 10^6 LM2-4^luc cells/50 μl serum-free DMEM in the right inguinal mammary fat pads of 6-week-old female CB-17 SCID mice.
(§2) Sunitinib malate (SU), from Pfizer or LC Laboratories, and its vehicle were formulated as described before (Ebos et al, [2009]). SU was administered by oral gavage (PO), once daily, at a dose of 60 mg/kg mouse weight. Vasculotide (VT): VT synthesized at the Sunnybrook Research Institute (Toronto, ON, Canada) was used in experiments described in Fig2(A–D) and Supplementary Fig S5(A and B). VT synthesized by American Peptide (Sunnyvale, CA, USA) was used in experiments described in Fig5. VT synthesized by Bachem UK Ltd was used in experiments described in Figs1, 2(E–H), 3, 4, 6–9, Supplementary Figs S2, and S5(C and D). Lyophilized product was reconstituted in PBS to 500 μg/500 μl stock aliquots and stored at −80°C. As needed, stock aliquots were diluted with PBS to a 250 ng/50 μl working concentration and stored in 0.4–1 ml aliquots at −80°C. VT (at a standard dose of 250 ng/mouse) or its vehicle (PBS) was administered to mice by intraperitoneal (IP) injections every other day.
(§3) 5. Bioluminescence imaging (BI) of tumor burden
For in vivo BI: Mice were injected intraperitoneally with 150mg/kg luciferin (Promega) 10 minutes prior to and anesthetized with isofluorane just before luminescent pseudocolor imaging (uniform settings: CCD camera locked at -105 °C, exposure=60s, f/1, subject size=1.5cm, bin=8, FOV=23.2cm, full image correction) using the IVIS 200 Imaging System (Caliper/PerkinElmer). Using the Living Image software (v2.50.1, Xenogen), weekly images were analyzed under uniform color range on grayscale photographic overlay. Total fluxes (photons/sec) were quantified within consistent regions of interest and statistically compared ideally at a timepoint before any deaths have occurred. […]

The test system of test [2] is orthotopic LM2-4luc breast cancer xenografts. Kind of test: orthotopic LM2-4luc xenografts, unresected: primary tumor and spontaneous metastasis. Format: in vivo, human LM2-4luc cells in CB-17 SCID mice. As to conditions: for primary tumor growth: VT from 10DPI, SU 7 days from 17DPI, n = 8, volume or bioluminescence, Fig5A–C.
From the text: The first experiment involved VT and SU treatments in the presence of an unresected primary tumor (Fig5). At 10 days post-implantation (DPI), when primary tumors reached an average size of ∽175 mm^3, mice were randomized into groups and chronic VT therapy was initiated. At 17DPI, when tumors reached an average size (∽400 mm^3) where tumor debulking is typically required for long-term metastasis experiments, a 7-day anti-angiogenic SU treatment was initiated in lieu of surgical resection.
as §1, §2, §3
For in vivo BI: Mice were injected intraperitoneally with 150mg/kg luciferin (Promega) 10 minutes prior to and anesthetized with isofluorane just before luminescent pseudocolor imaging (uniform settings: CCD camera locked at -105 °C, exposure=60s, f/1, subject size=1.5cm, bin=8, FOV=23.2cm, full image correction) using the IVIS 200 Imaging System (Caliper/PerkinElmer). Using the Living Image software (v2.50.1, Xenogen), weekly images were analyzed under uniform color range on grayscale photographic overlay. Total fluxes (photons/sec) were quantified within consistent regions of interest and statistically compared ideally at a timepoint before any deaths have occurred.
For ex vivo BI: Mice were sacrificed at 7 mins after luciferin injections, then organs of interest were dissected and individually placed within 24-well plates for imaging at 10 min post-luciferin injection.
6. Immunohistochemical (IHC) analysis of lung metastases
Surgically dissected lungs were fixed in 4% paraformaldehyde (PFA) overnight and stored in 70% ethanol. Three paraffin-embedded cross-sections per lung, 5-μm thick, 60 μ m apart, were subjected to IHC staining using a serum-free protein block (Dako X0909), an anti-human vimentin antibody (clone V9, Invitrogen 18-0052; 1:100 in Dako S3022 diluent), the universal ‘LSAB+, HRP’ detection kit (Dako K0690), the DAB+ chromogen-substrate system (Dako K3467) and hematoxylin counterstain.
Quantification procedure involved visual survey of entire tissue sections and tallying of DAB-stained […]

[3] abbreviates: 39DPI, SU 1wk with or without VT, Fig5F.

“Also recorded” adds a separate entry of the source.

Turning to `CCN(CC)CCNC(=O)c1c(C)[nH]c(/C=C2\C(=O)Nc3ccc(F)cc32)c1C` [sunitinib, reference compound], the “lung metastases by in vivo bioluminescent imaging” value in test [1] (VT 250 ng/2d, listed as SU) is given as “promoted lung metastases; also recorded: preferentially accelerated experimental lung metastasis, but not lymphatic metastasis”. In test [2] (setting [3]), the “incidence of lung metastases (ex vivo bioluminescent imaging)” value is 4/8 and the “incidence of lymph node metastases (ex vivo bioluminescent imaging)” value was 4/8. Besides, in test [2] (SU 7-day, one-way ANOVA, Fig5B), the “primary tumor burden by volume” value is given as “significantly lowered primary tumor burden”. In addition, the “primary tumor burden by bioluminescent activity” value in test [2] (SU 7-day, one-way ANOVA, Fig5C) is given as “significantly lowered primary tumor burden”. In addition, the primary tumor growth result in test [2] is “effectively stabilized primary tumor growth”.
For “CHHHRHSF [Vasculotide, 4-armed maleimide-functionalized polyethylene glycol (PEG) backbone to link together four cysteine-capped T7 peptides, that is, CHHHRHSF]”, the “lung metastases by in vivo bioluminescent imaging” value in test [1] (VT 250 ng/2d, listed as VT) is reported as “trend of reduced lung metastases; also recorded: effectively suppressing SU-induced promotion of lung metastases, as seen by IVBI (P < 0.05”. For the same molecule, the “confirmatory repeats: VT trends on lung metastases and survival” value in test [1] (Supplementary Fig S5) is “The same trends were reproduced”. For the same molecule, the survival result in test [1] (VT 250 ng/2d, with or without SU 60 mg/kg/day pretreatment, n = 5–6, Fig2A, listed as VT) is “significant survival benefit (P = 0.01); also recorded: prolonged median survival”. The “extension of median survival” value in test [1] (VT 250 ng/2d IP monotherapy, n = 5–6, Fig2A) is about 20%. Besides, the “incidence of lymph node metastases (ex vivo bioluminescent imaging)” value in test [2] (32DPI, vehicle 2/8, Fig5F) was 1/8. Also, in test [2] (32DPI, vehicle 6/8, Fig5F), the “incidence of lung metastases (ex vivo bioluminescent imaging)” value is 2/8. The “mean thickness of the viable peripheral regions of primary tumors (H&E)” value in test [2] (22 days of VT treatment, Fig5D) was “did not alter the mean thickness of the viable peripheral regions”. Besides, the “mean thickness of the CAIX+ hypoxic edge of primary tumors” value in test [2] (22 days of VT treatment, Fig5E) was “did not alter the mean thickness of the CAIX^+ hypoxic edge”. For the same molecule, the primary tumor growth result in test [2] is “did not alter the growth kinetics of primary tumors”. For the same molecule, in test [2] (VT monotherapy, P = 0.05–0.09, Fig5G), the “lung metastatic nodule size distribution (human vimentin IHC)” value is recorded as “delayed the seeding or progression of lung micrometastases”. Also, the “anti-metastatic benefit of concurrent VT treatment by regional IHC analysis” value in test [2] (VT with SU, Fig5G) was “not detectable by regional IHC analysis”. Besides, the “metastatic involvement in the lungs (EVBI)” value in test [2] (VT-treated groups vs vehicle or SU monotherapy, Fig5F) is “trends of reduced incidences of metastatic involvement in the lungs, but no change in the lymph nodes”.

The record behind these values is article PMC4459817, “Vasculotide reduces endothelial permeability and tumor cell extravasation in the absence of binding to or agonistic activation of Tie2” (EMBO Molecular Medicine, 2015).
